In US20070212426A1, “Composition and method of retarding viral activity and reducing viral replication” (priority 2006, published 2007):
Where two headings read alike, the source gives them in different places.

Experiments:
[1] = test system: human influenza A virus (VR-1520); type: cell-based; details: for output of Antigen to the control's output: Vero cells, control 245 Antigen units/ml
[2] = test system: Influenza Virus A's Neuraminidase; assay: Neuraminidase activity of cell-free virus, 4-methylumbelliferyl N-acetylneuramic acid substrate
Text: The method of these experiments are well known in the art, however, in brief, cell free virus are mixed with an equal volume of the composition in Table 1 or Ascorbic Acid in another, at various concentrations, and any inhibitory activity is observed at various time points after the mixture. Spectrophotometer assay for Neuraminidase has been established in the laboratory at using 4-methylumbelliferyl N-acetylneuramic acid as a substrate in the cell free system.

Structure (SMILES): O=C1O[C@H]([C@@H](O)CO)C(O)=C1O [ascorbic acid]
- output of Antigen to the control's output ([1]; 50 micromoles): 35%
- output of Antigen to the control's output ([1]; 100 micromoles): 45%
- output of Antigen to the control's output ([1]; 250 micromoles): 41%
- Influenza A virus antigen production in Vero cells (figure legend) ([1]; various concentrations, serum-free medium): marginal decrease
- Neuraminidase activity to the control's ([2]; 1000 microgram/ml): 90%
- Neuraminidase activity to the control's ([2]; 2000 microgram/ml): 85%
- Neuraminidase activity to the control's ([2]; 3000 microgram/ml): 80%
